Test results published in ChEMBL document CHEMBL1145864, “Synthesis and structure-activity relationship of a new series of COX-2 selective inhibitors: 1,5-diarylimidazoles” (J Med Chem, 2003).

Experiments:
[1] = target: T1, Prostaglandin G/H synthase 2 (Homo sapiens) (UniProt P35354); conditions: Blood; at 10 µM
T1 sequence (whole entry): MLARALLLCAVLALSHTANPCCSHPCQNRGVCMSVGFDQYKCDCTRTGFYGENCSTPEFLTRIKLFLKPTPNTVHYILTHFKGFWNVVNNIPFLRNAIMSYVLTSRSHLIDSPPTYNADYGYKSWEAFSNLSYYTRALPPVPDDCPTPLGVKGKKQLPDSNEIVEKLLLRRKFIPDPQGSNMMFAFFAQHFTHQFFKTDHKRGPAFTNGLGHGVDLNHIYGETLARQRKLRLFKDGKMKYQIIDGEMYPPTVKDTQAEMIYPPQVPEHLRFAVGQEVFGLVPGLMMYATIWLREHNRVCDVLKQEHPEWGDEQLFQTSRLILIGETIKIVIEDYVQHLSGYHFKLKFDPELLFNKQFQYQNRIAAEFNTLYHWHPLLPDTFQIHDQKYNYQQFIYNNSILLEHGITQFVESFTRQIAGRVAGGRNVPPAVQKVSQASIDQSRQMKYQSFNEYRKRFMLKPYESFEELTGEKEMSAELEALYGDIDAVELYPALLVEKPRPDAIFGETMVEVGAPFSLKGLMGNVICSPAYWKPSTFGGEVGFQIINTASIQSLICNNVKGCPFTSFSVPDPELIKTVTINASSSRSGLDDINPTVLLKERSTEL
Description: Inhibition of Prostaglandin G/H synthase 2 (COX-2) in human whole blood at 10 uM

[2] = target: Prostaglandin G/H synthase 1 (Homo sapiens, UniProt P23219); format: cell-based, U-937
Description: In vitro inhibitory activity against human Prostaglandin G/H synthase 1 (COX-1) in U-937 cells

Rattus norvegicus = experiment: In vivo anti-inflammatory activity determined by rat carrageenan paw edema method at 10 mg/kg perorally; format: functional; conditions: route oral
[3] = target: T1, Prostaglandin G/H synthase 2 (Homo sapiens); conditions: Blood; at 1 µM

Prostaglandin G/H synthase 1, sequence (P23219 whole entry): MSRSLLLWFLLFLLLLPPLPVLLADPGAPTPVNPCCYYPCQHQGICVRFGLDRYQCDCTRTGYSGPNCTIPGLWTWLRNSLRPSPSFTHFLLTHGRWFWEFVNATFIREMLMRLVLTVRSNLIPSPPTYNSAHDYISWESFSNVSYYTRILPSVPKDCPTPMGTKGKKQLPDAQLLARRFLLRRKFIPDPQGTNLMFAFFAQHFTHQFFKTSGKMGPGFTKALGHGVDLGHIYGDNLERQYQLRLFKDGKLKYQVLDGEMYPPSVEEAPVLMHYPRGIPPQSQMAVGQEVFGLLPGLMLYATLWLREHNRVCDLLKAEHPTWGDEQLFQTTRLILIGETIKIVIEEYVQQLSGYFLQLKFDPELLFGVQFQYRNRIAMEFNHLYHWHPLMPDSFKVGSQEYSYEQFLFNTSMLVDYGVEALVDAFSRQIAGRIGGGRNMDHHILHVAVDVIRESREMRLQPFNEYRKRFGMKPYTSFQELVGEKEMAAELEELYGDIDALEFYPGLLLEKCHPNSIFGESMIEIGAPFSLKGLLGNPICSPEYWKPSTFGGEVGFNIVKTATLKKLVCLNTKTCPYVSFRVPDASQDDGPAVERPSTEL

Structure (SMILES) | inhibition [1] | IC50 [2] | inhibition [3] | inhibition in vivo at 10 mg/kg (Rattus norvegicus)
Cc1nc(Cl)c(-c2ccc(F)cc2)n1-c1ccc(S(C)(=O)=O)cc1 | 27.5% | > 10 µM |  | 
CS(=O)(=O)c1ccc(-n2c(CO)nc(Cl)c2-c2ccc(F)cc2)cc1 | 2.4% | > 10 µM |  | 
CS(=O)(=O)c1ccc(-c2cnc(CF)n2-c2ccc(F)cc2)cc1 | 16.8% | > 10 µM |  | 
Cc1nc(Cl)n(-c2ccc(F)cc2)c1-c1ccc(S(C)(=O)=O)cc1 | 42.6% | > 10 µM |  | 
CS(=O)(=O)c1ccc(-n2c(-c3ccc(F)cc3)cnc2CO)cc1 | 27.4% | > 10 µM |  | 
CS(=O)(=O)c1ccc(-n2cncc2-c2ccc(F)cc2)cc1 | 56.9% | > 10 µM |  | 
CS(=O)(=O)c1ccc(-c2cnc(C(=O)c3ccccc3)n2-c2ccc(F)cc2)cc1 | 95% | > 10 µM |  | 
CS(=O)(=O)c1ccc(-c2cnc(C=O)n2-c2ccc(F)cc2)cc1 | 70.9% | > 10 µM |  | 27.5%
CS(=O)(=O)c1ccc(-n2c(-c3ccc(F)cc3)cnc2C(=O)c2ccccc2)cc1 | 0% | > 10 µM |  | 
CS(=O)(=O)c1ccc(-n2c(Cl)nc(Cl)c2-c2ccc(F)cc2)cc1 | 0% | > 10 µM |  | 
CCc1ncn(-c2ccc(S(C)(=O)=O)cc2)c1-c1ccc(F)cc1 | 3.8% | > 10 µM |  | 
CS(=O)(=O)c1ccc(-c2cncn2-c2ccc(F)cc2)cc1 | 63.4% | > 10 µM |  | 
CS(=O)(=O)c1ccc(-c2c(Cl)nc(Cl)n2-c2ccc(F)cc2)cc1 | 51.6% | > 10 µM |  | 
Cc1ncc(-c2ccc(S(C)(=O)=O)cc2)n1-c1ccc(F)cc1 | 68% | > 10 µM |  | 21.7%
CCOc1ccc(-c2c(Cl)ncn2-c2ccc(S(N)(=O)=O)cc2)cc1F | 100% | 76 µM | 57% | 30.3%
C=CCc1ncn(-c2ccc(S(C)(=O)=O)cc2)c1-c1ccc(F)cc1 | 3.4% | > 10 µM |  | 
CCCCCc1ncn(-c2ccc(S(C)(=O)=O)cc2)c1-c1ccc(F)cc1 | 64.4% | > 10 µM |  | 
CS(=O)(=O)c1ccc(-n2c(-c3ccc(F)cc3)cnc2Cl)cc1 |  | > 10 µM |  | 
CS(=O)(=O)c1ccc(-n2cnc(Cc3ccccc3)c2-c2ccc(F)cc2)cc1 | 60.5% | > 10 µM |  | 
COC(=O)c1ncc(-c2ccc(S(C)(=O)=O)cc2)n1-c1ccc(F)cc1 | 39.1% | > 10 µM |  | 
CS(=O)(=O)c1ccc(-c2cnc(CO)n2-c2ccc(F)cc2)cc1 | 8.1% | > 10 µM |  | 

More lines, main results first:

inhibition [1] | IC50 [2] | inhibition [3] | Structure (SMILES) | inhibition in vivo at 10 mg/kg (Rattus norvegicus)
100% | 23.8 µM | 79.6% | CS(=O)(=O)c1ccc(-n2cnc(Cl)c2-c2ccc(F)cc2F)cc1 | 8.6%
97.6% | > 10 µM | 19.6% | NS(=O)(=O)c1ccc(-n2cnc(Cl)c2-c2ccc(Cl)nc2)cc1 | 18.1%
100% | > 10 µM | 74.9% | CS(=O)(=O)c1ccc(-n2cnc(Cl)c2-c2cccnc2)cc1 | 19%
 | > 10 µM | 0% | CCCOc1ccc(-c2c(Cl)ncn2-c2ccc(S(C)(=O)=O)cc2)cc1 | 
36% | > 10 µM |  | CS(=O)(=O)c1ccc(-c2c(Br)ncn2-c2ccc(F)cc2)cc1 | 
61.6% | > 10 µM |  | CS(=O)(=O)c1ccc(-n2cnc(Cl)c2-c2cc(F)cc(F)c2)cc1 | 
100% | > 10 µM | 88.4% | CS(=O)(=O)c1ccc(-n2cnc(Cl)c2-c2ccc(Cl)cc2)cc1 | 9.1%
100% | 4 µM |  | Cc1cc(-c2c(Cl)ncn2-c2ccc(S(C)(=O)=O)cc2)ccc1Cl | 
0% | > 10 µM |  | CCOc1cc(OCC)cc(-c2c(Cl)ncn2-c2ccc(S(C)(=O)=O)cc2)c1 | 
100% | > 10 µM | 70% | CC(C)c1ccc(-c2c(Cl)ncn2-c2ccc(S(C)(=O)=O)cc2)cc1 | 17%
71.6% | > 10 µM |  | CS(=O)(=O)c1ccc(-n2cnc(Cl)c2-c2ccc(N)cc2)cc1 | 15.3%
88.5% | 0.9 µM | 49% | CSc1ccc(-c2c(Cl)ncn2-c2ccc(S(C)(=O)=O)cc2)cc1 | 21.7%
 | > 1 µM |  | CS(=O)(=O)c1ccc(-n2cnc(Cl)c2-c2cc(Br)co2)cc1 | 
100% | > 10 µM | 47.7% | CCOc1ccc(-c2c(Cl)ncn2-c2ccc(S(C)(=O)=O)cc2)cc1Cl | 2%
91.9% | > 10 µM | 60% | CCCc1ccc(-c2c(Cl)ncn2-c2ccc(S(C)(=O)=O)cc2)cc1 | 0%
 | > 10 µM |  | CS(=O)(=O)c1ccc(-n2cnc(Cl)c2-c2ccc(OC(F)(F)F)cc2)cc1 | 
100% | > 10 µM | 51.9% | CS(=O)(=O)c1ccc(-n2cnc(Cl)c2-c2cccc(F)c2)cc1 | 22.8%
100% | 0.11 µM | 100% | COc1ccc(-c2c(Cl)ncn2-c2ccc(S(C)(=O)=O)cc2)c(F)c1 | 33%
 | > 1 µM |  | CS(=O)(=O)c1ccc(-n2cnc(Cl)c2-c2cc3ccccc3o2)cc1 | 
 | > 10 µM |  | CC(=O)Nc1ccc(-c2c(Cl)ncn2-c2ccc(S(C)(=O)=O)cc2)cc1 | 
99.8% | > 10 µM | 37.3% | COc1c(Cl)cc(-c2c(Cl)ncn2-c2ccc(S(C)(=O)=O)cc2)cc1Cl | 16.5%
 | > 10 µM |  | CC(C)Oc1ccc(-c2c(Cl)ncn2-c2ccc(S(C)(=O)=O)cc2)cc1 | 
100% | > 10 µM | 100% | CCOc1ccc(-c2c(Cl)ncn2-c2ccc(S(C)(=O)=O)cc2)cc1 | 16.3%
97.3% | > 10 µM | 76.7% | CCSc1ccc(-c2c(Cl)ncn2-c2ccc(S(C)(=O)=O)cc2)cc1 | 12.3%
59.9% | > 10 µM |  | CC1Cc2cc(-c3c(Cl)ncn3-c3ccc(S(C)(=O)=O)cc3)ccc2O1 (stereo unspecified) | 
99.9% | 1.2 µM |  | COc1ccc(-c2c(Cl)ncn2-c2ccc(S(N)(=O)=O)cc2)cc1Cl | 24%
95.2% | > 10 µM | 96.5% | CCOc1ccc(-c2c(Cl)ncn2-c2ccc(S(C)(=O)=O)cc2)cc1F | 14.1%
65.5% | 0.11 µM | 69.9% | CS(=O)(=O)c1ccc(-n2cnc(Cl)c2-c2ccc3c(c2)CCO3)cc1 | 29%
 | > 10 µM |  | CCS(=O)(=O)c1ccc(-c2c(Cl)ncn2-c2ccc(S(C)(=O)=O)cc2)cc1 | 
15.3% | > 10 µM |  | CS(=O)(=O)c1ccc(-c2c(Cl)ncn2-c2ccc(F)cc2)cc1 | 
